SMILES strings stand for the structures. Several values for one entry are separate records, joined by “and”; a condition that tells them apart may be missing. Equal entries are not always repeated. Inconclusive results and toxic doses are left out.

This is an account of results in PubChem BioAssay AID330 (DTP/NCI, 2004).

In this experiment the test system is P388 leukemia ip, CD2F1 mice, survival T/C. The experiment is described as follows: NCI In Vivo Anticancer Drug Screen. Data for tumor model P388 Leukemia (intraperitoneal) in CD2F1 (CDF1) mice. Conditions: endpoint: median survival time, higher = longer survival. Summed up: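 Mice carrying the transplanted tumor received test compound or vehicle. Survival was recorded in each group, and the value is the treated-group measurement divided by that of the vehicle-treated control group.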

The mark [1] stands for this setting: dose: 100.0 mg/kg/injection, schedule: Q04DX002 (ip), vehicle: saline with Tween-80.
[2] abbreviates: dose: 200.0 mg/kg/injection, schedule: Q04DX002 (ip), vehicle: saline with Tween-80.
[3] abbreviates: dose: 50.0 mg/kg/injection, schedule: Q01DX009 (ip), vehicle: Klucel (hydroxypropylcellulose) (HPC).
Setting [4] is: dose: 100.0 mg/kg/injection, schedule: Q01DX009 (ip), vehicle: Klucel (hydroxypropylcellulose) (HPC).
Setting [5] is: dose: 200.0 mg/kg/injection, schedule: Q01DX009 (ip), vehicle: Klucel (hydroxypropylcellulose) (HPC).
Where [6] appears, read: dose: 60.0 mg/kg/injection, schedule: Q01DX005 (ip), vehicle: saline with Tween-80.
Setting [7] is: dose: 120.0 mg/kg/injection, schedule: Q01DX005 (ip), vehicle: saline with Tween-80.
The mark [8] stands for this setting: dose: 240.0 mg/kg/injection, schedule: Q01DX005 (ip), vehicle: saline with Tween-80.
The mark [9] stands for this setting: dose: 50.0 mg/kg/injection, schedule: Q01DX009 (ip), vehicle: saline with Tween-80.
[10] abbreviates: dose: 100.0 mg/kg/injection, schedule: Q01DX009 (ip), vehicle: saline with Tween-80.
Setting [11] is: dose: 200.0 mg/kg/injection, schedule: Q01DX009 (ip), vehicle: saline with Tween-80.
The mark [12] stands for this setting: dose: 50.0 mg/kg/injection, schedule: Q01DX005 (ip), vehicle: Klucel (hydroxypropylcellulose) (HPC).
Where [13] appears, read: dose: 100.0 mg/kg/injection, schedule: Q01DX005 (ip), vehicle: Klucel (hydroxypropylcellulose) (HPC).
The mark [14] stands for this setting: dose: 200.0 mg/kg/injection, schedule: Q01DX005 (ip), vehicle: Klucel (hydroxypropylcellulose) (HPC).
The mark [15] stands for this setting: dose: 50.0 mg/kg/injection, schedule: Q01DX005 (ip), vehicle: saline with Tween-80.
Setting [16] is: dose: 100.0 mg/kg/injection, schedule: Q01DX005 (ip), vehicle: saline with Tween-80.
Setting [17] is: dose: 200.0 mg/kg/injection, schedule: Q01DX005 (ip), vehicle: saline with Tween-80.
Setting [18] is: dose: 100.0 mg/kg/injection, schedule: Q04DX003 (ip), vehicle: Klucel (hydroxypropylcellulose) (HPC).
The mark [19] stands for this setting: dose: 200.0 mg/kg/injection, schedule: Q04DX003 (ip), vehicle: Klucel (hydroxypropylcellulose) (HPC).
The mark [20] stands for this setting: dose: 6.25 mg/kg/injection, schedule: Q01DX009 (ip), vehicle: saline.
[21] abbreviates: dose: 50.0 mg/kg/injection, schedule: Q01DX009 (ip), vehicle: saline.
Where [22] appears, read: dose: 200.0 mg/kg/injection, schedule: Q04DX003 (ip), vehicle: saline with Tween-80.

`COC(=O)c1c(-c2ccc3c(c2)OCO3)c(C=O)n(C)c1C`: the T/C under setting [1] was 90 % of control; the T/C under setting [2] is 87 % of control; the T/C (dose: 400.0 mg/kg/injection, schedule: Q04DX002 (ip), vehicle: saline with Tween-80) was 89 % of control.
`CC1(C)CC(=O)C=C(NCCCCCCNC2=CC(=O)CC(C)(C)C2)C1`: the T/C was 113 % of control under setting [3], 103 % of control under setting [4] and 95 % of control under setting [5].
`O=S(=O)(Nc1cccc(F)c1)c1ccc(F)cc1`: the T/C reads like this: under setting [6], 103 % of control; under setting [7], 99 % of control; under setting [8], 93 % of control.
As to `CCCCC1(CN(C)C)C(=O)N(C)C(=O)N(C2CCCCC2)C1=O` (centres undefined), the T/C was 100 % of control under setting [9], 102 % of control under setting [10] and 99 % of control under setting [11].
Turning to `OCc1c(-c2ccc(Cl)cc2)c(-c2ccccc2)c2n1CCC2`, the T/C under setting [12] is 94 % of control, the T/C under setting [13] is 91 % of control and the T/C under setting [14] was 92 % of control.
As for `COc1ccc(OC)c(NC(=O)CCCC(=O)CC(=O)C(C)(C)C)c1`, the T/C runs as follows: under setting [6], 101 % of control; under setting [7], 104 % of control; under setting [8], 93 % of control.
The like results for `Cc1ccc(/[N+]([O-])=C/c2ccccc2)cc1` were, in that order, 92 % of control, 94 % of control and 89 % of control.
Consider `C(=NCCN=Cc1cc2c(c3ccccc13)CCCC2)c1cc2c(c3ccccc13)CCCC2`, for which the T/C under setting [15] is 96 % of control, the T/C under setting [16] was 91 % of control and the T/C under setting [17] is 88 % of control.
In the case of `Nc1ncnc2c1c(-c1ccccc1)cn2-c1ccc(I)cc1`, the T/C under setting [6] was 103 % of control, the T/C under setting [7] was 100 % of control and the T/C under setting [8] is 96 % of control.
`CN(C)c1cc(-c2ccccc2)oc(=O)c1Cl`: the T/C runs as follows: under setting [9], 99 % of control; under setting [10], 100 % of control.
Consider `OCC1CC12c1ccccc1-c1ccccc12` (centres undefined), for which the T/C was 98 % of control under setting [6], 96 % of control under setting [7] and 101 % of control under setting [8].
For the compound `COc1cc(OC)c(C(=O)O)cc1Cl`, the T/C is, setting by setting: under setting [18], 100 % of control; under setting [19], 101 % of control; (dose: 400.0 mg/kg/injection, schedule: Q04DX003 (ip), vehicle: Klucel (hydroxypropylcellulose) (HPC)) 100 % of control.
With `CNCCCCc1cc(-c2ccc([N+](=O)[O-])cc2)n[nH]1`, under setting [18], the T/C is 105 % of control.
Consider `N#CC(C(=O)C(=O)C(C#N)c1nc2ccccc2s1)c1nc2ccccc2s1` (centres undefined), for which the T/C under setting [6] is 92 % of control, the T/C under setting [7] is 101 % of control and the T/C under setting [8] is 103 % of control.
In the case of `Cn1c([N+](=O)[O-])cnc1/C=C1\CCc2cc(OCCN3CCCC3)ccc2C1=O`, the T/C is 90 % of control (dose: 12.5 mg/kg/injection, schedule: Q01DX009 (ip), vehicle: saline with Tween-80) and 93 % of control (dose: 25.0 mg/kg/injection, schedule: Q01DX009 (ip), vehicle: saline with Tween-80).
In the case of `O=C(OCc1ccccc1)c1ccc(=O)oc1`, the T/C is 114 % of control under setting [18] and 110 % of control under setting [19].
As for `CC(=O)N1C(=O)C2(Nc3cc4ccccc4cc3N2)c2ccccc21`, the T/C runs as follows: under setting [6], 94 % of control; under setting [7], 93 % of control; under setting [8], 92 % of control.
Consider `CCN(CC)CC(C)Nc1ccc([N+](=O)[O-])c2sc3ccccc3c(=O)c12` (centres undefined), for which the T/C is 113 % of control under setting [20]; 115 % of control (dose: 12.5 mg/kg/injection, schedule: Q04DX003 (ip), vehicle: saline with Tween-80); 120 % of control (dose: 25.0 mg/kg/injection, schedule: Q04DX003 (ip), vehicle: saline with Tween-80); 172 % of control under setting [9]; 186 % of control under setting [21]; 163 % of control (dose: 132.0 mg/kg/injection, schedule: Q04DX003 (ip), vehicle: saline with Tween-80). In addition, under setting [22], the T/C was 154 % of control.
For the compound `N=c1nccnn1O`, the T/C reads like this: (dose: 100.0 mg/kg/injection, schedule: Q04DX003 (ip), vehicle: saline with Tween-80) 100 % of control; under setting [22], 99 % of control; (dose: 400.0 mg/kg/injection, schedule: Q04DX003 (ip), vehicle: saline with Tween-80) 100 % of control.
On to `CCOC(=O)C(=O)Nc1ccc2cc(OC)ccc2c1C#N`, for which the T/C reads like this: under setting [20], 94 % of control; (dose: 12.5 mg/kg/injection, schedule: Q01DX009 (ip), vehicle: saline) 94 % of control; (dose: 25.0 mg/kg/injection, schedule: Q01DX009 (ip), vehicle: saline) 91 % of control; under setting [21], 99 % of control; (dose: 100.0 mg/kg/injection, schedule: Q01DX009 (ip), vehicle: saline) 106 % of control; (dose: 200.0 mg/kg/injection, schedule: Q01DX009 (ip), vehicle: saline) 106 % of control.
For `CCO[Si](CCCCl)(OCC)OCC`, the T/C runs as follows: under setting [3], 100 % of control; under setting [4], 106 % of control; under setting [5], 118 % of control.
The like results for `CCCCCCCC/C=C\CCCCCCCC(=O)OCC(=O)OC` were, in that order, 98 % of control, 104 % of control and 110 % of control.
For `CCCCNC1C2CCC(C)(C1O)C2(C)C` (centres undefined), the T/C under setting [12] was 97 % of control.
Consider `CC(=O)N(O)c1ccc2c(c1)Cc1cc(F)ccc1-2`, for which the T/C is 110 % of control and 121 % of control under setting [15]; 120 % of control under setting [16]; 123 % of control under setting [17]; 116 % of control (dose: 400.0 mg/kg/injection, schedule: Q01DX005 (ip), vehicle: saline with Tween-80).
Turning to `O=[N+]([O-])c1cc(Cl)ccc1Cl`, the T/C by setting is: under setting [9], 100 % of control; under setting [10], 100 % of control; under setting [11], 91 % of control.
For `CC(C)CNC(=O)c1ccccc1C(=O)NC1(C(=O)NCC(C)C)CCCC1`, the T/C reads like this: under setting [15], 87 % of control; under setting [16], 86 % of control; under setting [17], 94 % of control.
In the case of `CC(=O)OC(COS(C)(=O)=O)C(OC(C)=O)C(OC(C)=O)C(COS(C)(=O)=O)OC(C)=O` (centres undefined), the T/C is 108 % of control (dose: 100.0 mg/kg/injection, schedule: Q01DX001 (ip), vehicle: Klucel (hydroxypropylcellulose) (HPC)); 100 % of control (dose: 200.0 mg/kg/injection, schedule: Q01DX001 (ip), vehicle: Klucel (hydroxypropylcellulose) (HPC)); 117 % of control (dose: 400.0 mg/kg/injection, schedule: Q01DX001 (ip), vehicle: Klucel (hydroxypropylcellulose) (HPC)).
Regarding `CCC[CH2][Sn]([CH2]CCC)([S]CCS(=O)(=O)O)[S]CCS(=O)(=O)O` (tested in a mixture with another compound), the T/C reads like this: (dose: 60.0 mg/kg/injection, schedule: Q01DX005 (ip), vehicle: Klucel (hydroxypropylcellulose) (HPC)) 105 % of control; (dose: 120.0 mg/kg/injection, schedule: Q01DX005 (ip), vehicle: Klucel (hydroxypropylcellulose) (HPC)) 105 % of control; (dose: 240.0 mg/kg/injection, schedule: Q01DX005 (ip), vehicle: Klucel (hydroxypropylcellulose) (HPC)) 115 % of control.
As to `O=C(Nc1ccccc1-c1ccccc1)c1cccc2ccccc12`, the T/C is 106 % of control under setting [15], 94 % of control under setting [16] and 90 % of control under setting [17].
Turning to `Nc1[nH]c(=S)nc2nc3c4ccccc4c4ccccc4c3nc12`, the T/C reads like this: under setting [12], 91 % of control; under setting [13], 90 % of control; under setting [14], 91 % of control.
Consider `COC1(C)CNc2ccccc2C(=O)N1` (centres undefined), for which the T/C was 96 % of control under setting [15], 98 % of control under setting [16] and 94 % of control under setting [17].
Regarding `CC(=O)C1=CC(C)(C)OC1=O`, the T/C runs as follows: under setting [1], 103 % of control; under setting [2], 109 % of control.
In the case of `C1CCCNCCNCCNCC1`, the T/C under setting [6] was 98 % of control, the T/C under setting [7] was 100 % of control and the T/C under setting [8] was 92 % of control.
